Test results taken from PubChem BioAssay (NCI).
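Results reflect a 48-hour exposure of cells in 96-well plates to compound at five concentrations. Definition used: TGI = concentration required for complete inhibition of growth.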

How the values were obtained:
Assay in all cases: NCI anticancer screen, dose series, 48 h
[1] = test system: HCT-116 colon
[2] = test system: NCI-H460 lung
[3] = test system: 786-0 renal
[4] = test system: SF-295 CNS
[5] = test system: HOP-62 NSCLC
[6] = test system: MDA-N
[7] = test system: OVCAR-3 ovarian
[8] = test system: MOLT-4 leukemia
[9] = test system: COLO 205 colon
[10] = test system: SK-MEL-2 melanoma
[11] = test system: SK-OV-3 ovarian
[12] = test system: U251 CNS
[13] = test system: M14 melanoma
[14] = test system: LOX IMVI melanoma
[15] = test system: HOP-92 NSCLC
[16] = test system: TK-10 renal
[17] = test system: HT29 colon
[18] = test system: SNB-75 CNS
[19] = test system: SK-MEL-5 melanoma
[20] = test system: BT-549 breast
[21] = test system: IGROV1 ovarian
[22] = test system: MCF7 breast
[23] = test system: MALME-3M melanoma
[24] = test system: NCI-H23 lung
[25] = test system: SK-MEL-28 melanoma
[26] = test system: HCC-2998 colon
[27] = test system: K-562 leukemia
[28] = test system: SF-268 CNS
[29] = test system: NCI/ADR-RES ovarian
[30] = test system: OVCAR-4 ovarian
[31] = test system: PC-3 prostate
[32] = test system: KM12 colon
[33] = test system: NCI-H522 lung
[34] = test system: RXF 393 renal
[35] = test system: A549 NSCLC
[36] = test system: SNB-19 CNS
[37] = test system: OVCAR-8 ovarian
[38] = test system: ACHN renal
[39] = test system: MDA-MB-435
[40] = test system: SF-539 CNS
[41] = test system: T-47D breast
[42] = test system: MDA-MB-231 breast
[43] = test system: UO-31 renal
[44] = test system: UACC-62 melanoma
[45] = test system: CCRF-CEM leukemia
[46] = test system: EKVX NSCLC
[47] = test system: HS 578T breast
[48] = test system: HCT-15 colon
[49] = test system: SR leukemia
[50] = test system: DU-145 prostate
[51] = test system: HL-60(TB) leukemia
[52] = test system: OVCAR-5 ovarian
[53] = test system: UACC-257 melanoma
[54] = test system: SN12C renal
[55] = test system: RPMI-8226 leukemia
[56] = test system: SW-620 colon
[57] = test system: CAKI-1 renal
[58] = test system: NCI-H226 lung
[59] = test system: A498 renal

Compound: Clc1nc2nc(N3CCNCC3)nc(N3CCCC3)c2[nH]1
- TGI [1]: 29.7 µM
- TGI [2]: 32.7 µM
- TGI [3]: 32.1 µM
- TGI [4]: 38.2 µM
- TGI [5]: 36.2 µM
- TGI [6]: 32.1 µM
- TGI [7]: 33.9 µM
- TGI [8]: 43.1 µM
- TGI [9]: 31 µM
- TGI [10]: 35.4 µM
- TGI [11]: 37.2 µM
- TGI [12]: 31.8 µM
- TGI [13]: 34.6 µM
- TGI [14]: 29.4 µM
- TGI [15]: 37.2 µM
- TGI [16]: > 100 µM
- TGI [17]: 34.2 µM
- TGI [18]: 36 µM
- TGI [19]: 28.8 µM
- TGI [20]: 89.8 µM
- TGI [21]: 32.7 µM
- TGI [22]: 32.2 µM
- TGI [23]: 36.3 µM
- TGI [24]: 32 µM
- TGI [25]: 39.6 µM
- TGI [26]: 29.5 µM
- TGI [27]: 52.7 µM
- TGI [28]: 40.4 µM
- TGI [29]: > 100 µM
- TGI [30]: 35 µM
- TGI [31]: 33.9 µM
- TGI [32]: 35.9 µM
- TGI [33]: 33.7 µM
- TGI [34]: 27.9 µM
- TGI [35]: 33.1 µM
- TGI [36]: 31.8 µM
- TGI [37]: 30.3 µM
- TGI [38]: 37.7 µM
- TGI [39]: 34.5 µM
- TGI [40]: 33.8 µM
- TGI [41]: 33.6 µM
- TGI [42]: 31.8 µM
- TGI [43]: 29.6 µM
- TGI [44]: 31.8 µM
- TGI [45]: 41 µM
- TGI [46]: 31.8 µM
- TGI [47]: > 100 µM
- TGI [48]: 35.3 µM
- TGI [49]: 38.7 µM
- TGI [50]: 30.9 µM
- TGI [51]: 42.8 µM
- TGI [52]: 44.3 µM
- TGI [53]: 37.1 µM
- TGI [54]: 34.4 µM
- TGI [55]: 48 µM
- TGI [56]: 45.4 µM
- TGI [57]: > 100 µM
- TGI [58]: > 100 µM

Compound: CCOC(=O)c1nc2ccccc2nc1Nc1ccc(C(=O)OC)s1
- TGI [1]: > 100 µM
- TGI [2]: > 100 µM
- TGI [3]: > 100 µM
- TGI [4]: > 100 µM
- TGI [5]: > 100 µM
- TGI [6]: > 100 µM
- TGI [7]: > 100 µM
- TGI [8]: > 100 µM
- TGI [9]: > 100 µM
- TGI [10]: > 100 µM
- TGI [12]: > 100 µM
- TGI [13]: > 100 µM
- TGI [14]: > 100 µM
- TGI [15]: > 100 µM
- TGI [16]: > 100 µM
- TGI [17]: > 100 µM
- TGI [18]: > 100 µM
- TGI [19]: > 100 µM
- TGI [20]: > 100 µM
- TGI [21]: > 100 µM
- TGI [22]: > 100 µM
- TGI [23]: > 100 µM
- TGI [24]: > 100 µM
- TGI [25]: > 100 µM
- TGI [26]: > 100 µM
- TGI [28]: > 100 µM
- TGI [29]: > 100 µM
- TGI [30]: > 100 µM
- TGI [31]: > 100 µM
- TGI [32]: > 100 µM
- TGI [33]: > 100 µM
- TGI [35]: > 100 µM
- TGI [36]: > 100 µM
- TGI [37]: > 100 µM
- TGI [38]: > 100 µM
- TGI [39]: > 100 µM
- TGI [40]: > 100 µM
- TGI [59]: > 100 µM
- TGI [41]: > 100 µM
- TGI [42]: > 100 µM
- TGI [43]: > 100 µM
- TGI [44]: > 100 µM
- TGI [45]: > 100 µM
- TGI [46]: > 100 µM
- TGI [47]: > 100 µM
- TGI [48]: > 100 µM
- TGI [49]: > 100 µM
- TGI [50]: > 100 µM
- TGI [51]: > 100 µM
- TGI [52]: > 100 µM
- TGI [53]: > 100 µM
- TGI [54]: > 100 µM
- TGI [55]: > 100 µM
- TGI [56]: > 100 µM
- TGI [57]: > 100 µM

Compound: COc1ccc(/C(=N/O)c2ccccc2C2=Nc3ccccc3C(NCc3ccccc3)O2)cc1C (configuration not stated)
- TGI [1]: > 100 µM
- TGI [2]: > 100 µM
- TGI [3]: > 100 µM
- TGI [4]: 67.3 µM
- TGI [5]: > 100 µM
- TGI [6]: > 100 µM
- TGI [7]: > 100 µM
- TGI [8]: > 100 µM
- TGI [9]: 38.9 µM
- TGI [10]: > 100 µM
- TGI [11]: 82.5 µM
- TGI [12]: > 100 µM
- TGI [13]: > 100 µM
- TGI [14]: > 100 µM
- TGI [15]: 71.9 µM
- TGI [17]: > 100 µM
- TGI [18]: 75.4 µM
- TGI [19]: 32.8 µM
- TGI [21]: > 100 µM
- TGI [22]: > 100 µM
- TGI [23]: 52.7 µM
- TGI [24]: > 100 µM
- TGI [25]: > 100 µM
- TGI [26]: > 100 µM
- TGI [27]: 97.4 µM
- TGI [28]: > 100 µM
- TGI [29]: > 100 µM
- TGI [31]: > 100 µM
- TGI [32]: > 100 µM
- TGI [33]: > 100 µM
- TGI [34]: > 100 µM
- TGI [35]: > 100 µM
- TGI [36]: > 100 µM
- TGI [37]: 77.1 µM
- TGI [38]: > 100 µM
- TGI [39]: 90.4 µM
- TGI [40]: > 100 µM
- TGI [42]: > 100 µM
- TGI [43]: 67.5 µM
- TGI [44]: 88.7 µM
- TGI [45]: > 100 µM
- TGI [46]: > 100 µM
- TGI [47]: > 100 µM
- TGI [48]: > 100 µM
- TGI [49]: > 100 µM
- TGI [50]: > 100 µM
- TGI [51]: > 100 µM
- TGI [52]: > 100 µM
- TGI [53]: 41.9 µM
- TGI [54]: > 100 µM
- TGI [55]: > 100 µM
- TGI [56]: > 100 µM
- TGI [57]: > 100 µM
- TGI [58]: > 100 µM
